Data reported in patent publication US9464291B2, “Methods and compositions for the treatment of cancer” (University of South Alabama, priority 2012, dated 2016).
pIC50: −log10 of the molar value. Where “and” joins values, the source holds several entries; their conditions need not be identical. Equal entries are not always repeated. Entries after “also recorded” stand apart in the source; their conditions may differ. Where two headings read alike, the source gives them in different places.

Tests used:
[1] = system: c-jun (Ser 63, Ser 73, Thr 91, Thr 93); settings: A2780-CP70; 3-5 hr after cisplatin treatment; cited from earlier work
A2780-CP70 cells [2] = test: Cisplatin cell growth / cell killing curves in A2780-CP70 cells; format: cell-based, human; settings: cisplatin alone (lipofectamine only / control cells)
Protocol: A2780-CP70 cells were transfected with 0.07 μg/well anti-Gli1 shRNA construct or control. Transfected cells were treated with 0 μM, 10 μM, 30 μM, and 100 μM cisplatin at 24 hr post-transfection. Percent cell growth was determined relative to control cells. […] In another experiment, A2780-CP70 cells were transfected with 0.02 μg/well or 0.07 μg/well anti-Gli1 shRNA construct. Transfected cells were treated with 0 μM, 2 μM, 5 μM, 10 μM, 30 μM, and 50 μM cisplatin at 24 hr post-transfection. Percent cell growth was determined relative to control cells (FIG. 52B).
Control cells were treated with cisplatin only. Percent cell growth was determined relative to control cells.

ERCC1, XPD, XRCC1 [3] = settings: cells treated with cisplatin only; cited from earlier work
A2780-CP70 cells [4] = settings: cisplatin-resistant A2780-CP70; cited from earlier work
ERCC1, XPD, XRCC1 [5] = test: ERCC1, XPD, XRCC1 mRNA / protein levels in A2780-CP70 cells; format: cell-based, human
c-jun = c-jun mRNA (semi-quantitative PCR) and protein (Western blot) in A2780-CP70 cells; format: cell-based, human; settings: A2780-CP70
Protocol: Controls included α-tubulin and histone deacetylase 3. C-jun antibody recognizes non-phosphorylated c-jun protein.
c-jun and c-fos mRNA expression was examined in A2780-CP70 cells transfected with anti-GLI1 shRNA construct at 6 hr, 24 hr, 48 hr, and 72 hr post-transfection using semi-quantative PCR analysis (FIG. 41).
A2780-CP70 cells were transfected with an IC50 dose of anti-Gli1 shRNA (treated) construct or vector (control). Total intracellular c-jun mRNA and c-jun protein was measured at 6 hr, 24 hr, 48 hr, and 72 hr.
C-jun mRNA and protein levels were further examined in cisplatin-resistant A2780-CP70 cells treated with an IC50 dose of anti-Gli1 shRNA. FIG. 78 depicts mRNA levels (panel A) and protein levels (panel B) in cells at 6, 24, 48, and 72 hours post-treatment.

[6] = system: c-jun (Ser 63, Ser 73, Thr 91, Thr 93); test: c-jun protein phosphorylation, Western blot, A2780-CP70 cells; format: cell-based, human; settings: 72 hr observation
Protocol: Protein levels for c-jun, c-fos, phosphorylated c-jun (Ser 63), phosphorylated c-jun (Ser 73), and phosphorylated c-jun (Thr 91, Thr 93) were tested in cytosolic, nuclear, and whole cell fractions at 0 hr, 6 hr, 24 hr, 48 hr, and 72 hr. Internal controls for cytosolic and nuclear fractions included α-tubulin and histone deacetylase 3.
Phosphorylation of c-jun in A2780-CP70 cells transfected with anti-GLI1 shRNA construct was assessed using Western blot analysis. Protein levels for c-jun, phosphorylated c-jun (Ser 63), phosphorylated c-jun (Ser 73), and phosphorylated c-jun (Thr 91, Thr 93) were examined at 0 hr, 6 hr, 24 hr, 48 hr, and 72 hr.
A2780-CP70 cells were treated with an IC50 dose of cisplatin and an IC50 dose of anti-Gli1 shRNA.

SMILES: N.N.[Cl][Pt][Cl] [cisplatin]
- peak c-jun phosphorylation over baseline [1]: 15 fold
- pIC50 (A2780-CP70 cells [2]): 4.52 and 4.55
- expected increase in ERCC1 mRNA levels (ERCC1, XPD, XRCC1 [3]): 6 fold
- pIC50 (A2780-CP70 cells [4]): ~4.40
- time of highest ERCC1, XPD, XRCC1 mRNA levels after cisplatin exposure (ERCC1, XPD, XRCC1 [5]; A2780-CP70, cyclopamine pretreatment vs cisplatin alone): 4 to 6 h
- increase of ERCC1, XPD, and XRCC1 protein expression levels (ERCC1, XPD, XRCC1 [5]; cells treated with cisplatin): 5 fold
- expected rise of ERCC1 (as would XPD and XRCC1) (ERCC1, XPD, XRCC1 [5]; cisplatin alone (unpublished data)): more than 6 fold
- time of peak c-jun level (c-jun; IC50 dose of agent): 6 h
- c-jun protein expression (c-jun; IC50 dose of cisplatin): increased substantial
- c-jun phosphorylation at Ser63 [6]: increases specifically at Ser63 and Ser73
- c-jun phosphorylation at Thr91/93 [6]: do not change significantly; also recorded: did not significantly change
